Where a name gives a salt, the structure may show the parent alone. Read-outs that look alike come from different tables or passages of the source.
Assays:
TNF-α = assay: Cytokine induction in human cells (PBMC): TNF-α secreted into culture media, ORIGEN M-Series immunoassay; format: cell-based; conditions: median where several experiments; for minimal effective concentration: 30-0.014 μM, lowest concentration inducing over 40 pg/mL, read-out: Minimum Effective Concentration TNF; for Maximal Response TNF: Table 4, background-subtracted, reference-adjusted, * = below background
Description: (§1) An in vitro human blood cell system is used to assess cytokine induction. Activity is based on the measurement of interferon (α) and tumor necrosis factor (α) (IFN-α, and TNF-α, respectively) secreted into culture media as described by Testerman et. al. in “Cytokine Induction by the Immunomodulators Imiquimod and S-27609”, Journal of Leukocyte Biology, 58, 365-372 (September, 1995).
(§2) Whole blood from healthy human donors is collected by venipuncture into vacutainer tubes or syringes containing EDTA. Peripheral blood mononuclear cells (PBMC) are separated from whole blood by density gradient centrifugation using HISTOPAQUE-1077 (Sigma, St. Louis, Mo.) or Ficoll-Paque Plus (Amersham Biosciences Piscataway, N.J.). Blood is diluted 1:1 with Dulbecco's Phosphate Buffered Saline (DPBS) or Hank's Balanced Salts Solution (HBSS). Alternately, whole blood is placed in Accuspin (Sigma) or LeucoSep (Greiner Bio-One, Inc., Longwood Fla.) centrifuge frit tubes containing density gradient medium. The PBMC layer is collected and washed twice with DPBS or HBSS and re-suspended at 4×10^6 cells/mL in RPMI complete. The PBMC suspension is added to 96 well flat bottom sterile tissue culture plates containing an equal volume of RPMI complete media containing test compound.
(§3) The compounds are solubilized in dimethyl sulfoxide (DMSO). The DMSO concentration should not exceed a final concentration of 1% for addition to the culture wells. The compounds are generally tested at concentrations ranging from 30-0.014 μM. Controls include cell samples with media only, cell samples with DMSO only (no compound), and cell samples with reference compound.
(§4) The solution of test compound is added at 60 μM to the first well containing RPMI complete and serial 3 fold dilutions are made in the wells. The PBMC suspension is then added to the wells in an equal volume, bringing the test compound concentrations to the desired range (usually 30-0.014 μM). The final concentration of PBMC suspension is 2×10^6 cells/mL. The plates are covered with sterile plastic lids, mixed gently and then incubated for 18 to 24 hours at 37° C. in a 5% carbon dioxide atmosphere.
(§5) Following incubation the plates are centrifuged for 10 minutes at 1000 rpm (approximately 200×g) at 4° C. The cell-free culture supernatant is removed and transferred to sterile polypropylene tubes. Samples are maintained at −30 to −70° C. until analysis. The samples are analyzed for IFN-α by ELISA and for TNF-α by IGEN/BioVeris Assay.
The TNF-α concentration is determined by ORIGEN M-Series Immunoassay and read on an IGEN M-8 analyzer from BioVeris Corporation, formerly known as IGEN International, Gaithersburg, Md. The immunoassay uses a human TNF-α capture and detection antibody pair (Catalog Numbers AHC3419 and AHC3712) from Biosource International, Camarillo, Calif. Results are expressed in pg/mL.
Analysis of the data has two steps. First, the greater of the mean DMSO (DMSO control wells) or the experimental background (usually 20 pg/mL for IFN-α and 40 pg/mL for TNF-α) is subtracted from each reading. If any negative values result from background subtraction, the reading is reported as “*” and is noted as not reliably detectable. In subsequent calculations and statistics, “*” is treated as a zero. Second, all, background subtracted values are multiplied by a single adjustment ratio to decrease experiment to experiment variability. The adjustment ratio is the area of the reference compound in the new experiment divided by the expected area of the reference compound based on the past 61 experiments (unadjusted readings). […] The reference compound used is 2-[4-amino-2-ethoxymethyl-6,7,8,9-tetrahydro-α,α-dimethyl-1H-imidazo[4,5-c]quinolin-1-yl]ethanol hydrate (U.S. Pat. No. 5,352,784; Example 91) and the expected area is the sum of the median dose values from the past 61 experiments. […]

IFN-α = assay: Cytokine induction in human cells (PBMC): IFN-α secreted into culture media, ELISA; format: cell-based; conditions: median where several experiments; for minimal effective concentration: 30-0.014 μM, lowest concentration inducing over 20 pg/mL, read-out: Minimum Effective Concentration IFN
Description: as §1, §2, §3, §4, §5
IFN-α concentration is determined with a human multi-subtype colorimetric sandwich ELISA (Catalog Number 41105) from PBL Biomedical Laboratories, Piscataway, N.J. Results are expressed in pg/mL.
Analysis of the data has two steps. First, the greater of the mean DMSO (DMSO control wells) or the experimental background (usually 20 pg/mL for IFN-α and 40 pg/mL for TNF-α) is subtracted from each reading. If any negative values result from background subtraction, the reading is reported as “*” and is noted as not reliably detectable. In subsequent calculations and statistics, “*” is treated as a zero. Second, all, background subtracted values are multiplied by a single adjustment ratio to decrease experiment to experiment variability. The adjustment ratio is the area of the reference compound in the new experiment divided by the expected area of the reference compound based on the past 61 experiments (unadjusted readings). […] The reference compound used is 2-[4-amino-2-ethoxymethyl-6,7,8,9-tetrahydro-α,α-dimethyl-1H-imidazo[4,5-c]quinolin-1-yl]ethanol hydrate (U.S. Pat. No. 5,352,784; Example 91) and the expected area is the sum of the median dose values from the past 61 experiments.
The minimum effective concentration is calculated based on the background-subtracted, reference-adjusted results for a given experiment and compound. […]

melting point | SMILES | minimal effective concentration (TNF-α; Table 4, 18 to 24 hours) | minimal effective concentration (IFN-α; Table 4, 18 to 24 hours) | minimal effective concentration (TNF-α; Table 3, 18 to 24 hours) | minimal effective concentration (IFN-α; Table 3, 18 to 24 hours) | Maximal Response TNF (TNF-α) | Maximal Response IFN (IFN-α; Table 4, background-subtracted, reference-adjusted)
 | CCc1nc2c(N)nc3cccnc3c2n1CC(C)(C)O [Analog 4, 1-(4-amino-2-ethyl-1H-imidazo[4,5-c][1,5]naphthyridin-1-yl)-2-methylpropan-2-ol, reference compound] | 3.33 µM | 0.37 µM |  |  |  | 
240 to 241 °C | CC(C)(F)Cn1c(CO)nc2c(N)nc3cccnc3c21 [Example 14, [4-Amino-1-(2-fluoro-2-methylpropyl)-1H-imidazo[4,5-c][1,5]naphthyridin-2-yl]methanol] | 3.33 µM | 1.11 µM |  |  |  | 
157 to 159 °C | CCOCc1nc2c(N)nc3cccnc3c2n1CC(C)(C)O [Analog 1, 1-(4-amino-2-ethoxymethyl-1H-imidazo[4,5-c][1,5]naphthyridin-1-yl)-2-methylpropan-2-ol] | 1.11 µM | 0.12 µM | 1.11 µM | 0.12 µM |  | 
224 to 225 °C | CC(C)(F)Cn1c(CCO)nc2c(N)nc3cccnc3c21 [Example 15, 2-[4-Amino-1-(2-fluoro-2-methylpropyl)-1H-imidazo[4,5-c][1,5]naphthyridin-2-yl]ethanol] | 10 µM | 1.11 µM |  |  |  | 
136 to 138 °C | CS(=O)(=O)NCCn1c(CCO)nc2c(N)nc3cccnc3c21 [Example 5, N-{2-[4-Amino-2-(2-hydroxyethyl)-1H-imidazo[4,5-c][1,5]naphthyridin-1-yl]ethyl}methanesulfonamide] | > 30 µM | 30 µM |  |  | * (Below the experimental background of 40 pg/mL) | 
226 to 228 °C | CC(C)Cn1c(CO)nc2c(N)nc3cccnc3c21 [Example 96, [4-Amino-1-(2-methylpropyl)-1H-imidazo[4,5-c][1,5]naphthyridin-2-yl]methanol] | 30 µM | 1.11 µM |  |  |  | 
235 to 237 °C | CC(C)(O)Cn1c(CO)nc2c(N)nc3cccnc3c21 [Example 6, 1-(4-Amino-2-hydroxymethyl-1H-imidazo[4,5-c][1,5]naphthyridin-1-yl)-2-methylpropan-2-ol] | 10 µM | 1.11 µM | 10 µM | 1.11 µM |  | 
 | Cc1nc2c(N)nc3cccnc3c2n1CC(C)(C)F [Analog 8, 1-(2-fluoro-2-methylpropyl)-2-methyl-1H-imidazo[4,5-c][1,5]naphthyridin-4-amine, reference compound] | 10 µM | 0.37 µM |  |  |  | 
 | CCOCc1nc2c(N)nc3cccnc3c2n1CC(C)C [Analog 9, 2-ethoxymethyl-1-(2-methylpropyl)-1H-imidazo[4,5-c][1,5]naphthyridin-4-amine, reference compound] | 1.11 µM | 0.12 µM |  |  |  | 
234 to 235 °C | COCCc1nc2c(N)nc3cccnc3c2n1CC(C)(C)O (as salt: hydrobromid) [Analog 2, 1-[4-amino-2-(2-methoxyethyl)-1H-imidazo[4,5-c][1,5]naphthyridin-1-yl]-2-methylpropan-2-ol] |  |  |  |  |  | 
194 to 195 °C | CS(=O)(=O)NCCCCn1c(CCO)nc2c(N)nc3cccnc3c21 [Example 3, N-{4-{4-Amino-2-(2-hydroxyethyl)-1H-imidazo[4,5-c][1,5]naphthyridin-1-yl]butyl}methanesulfonamide] | 30 µM | 1.11 µM |  |  |  | 
210 to 211 °C | CCOCc1nc2c(N)nc3cccnc3c2n1CC(C)(C)NC(=O)C1CCCCC1 [Analog 6, N-[2-(4-amino-2-ethoxymethyl-1H-imidazo[4,5-c][1,5]naphthyridin-1-yl)-1,1-dimethylethyl]cyclohexanecarboxamide] | 0.014 µM | 0.014 µM |  |  |  | 
 | CCCc1nc2c(N)nc3cccnc3c2n1CC(C)(C)O [Analog 5, 1-(4-amino-2-propyl-1H-imidazo[4,5-c][1,5]naphthyridin-1-yl)-2-methylpropan-2-ol, reference compound] | 1.11 µM | 0.12 µM |  |  |  | 
230 to 232 °C | CC(C)(Cn1c(CO)nc2c(N)nc3cccnc3c21)NC(=O)C1CCCCC1 [Example 1, N-[2-(4-Amino-2-hydroxymethyl-1H-imidazo[4,5-c][1,5]naphthyridin-1-yl)-1,1-dimethylethyl]cyclohexanecarboxamide] | 10 µM | 1.11 µM |  |  |  | 
 | Cc1nc2c(N)nc3cccnc3c2n1CC(C)C [Analog 10, 2-methyl-1-(2-methylpropyl)-1H-imidazo[4,5-c][1,5]naphthyridin-4-amine, reference compound] | 1.11 µM | 0.37 µM |  |  |  | 
 | Cc1nc2c(N)nc3cccnc3c2n1CC(C)(C)O [Analog 3, 1-(4-amino-2-methyl-1H-imidazo[4,5-c][1,5]naphthyridin-1-yl)-2-methylpropan-2-ol, reference compound] | 3.33 µM | 0.37 µM |  |  |  | 
 | CCOCc1nc2c(N)nc3cccnc3c2n1CC(C)(C)NS(C)(=O)=O [Analog 7, N-[2-(4-amino-2-ethoxoxymethyl-1H-imidazo[4,5-c][1,5]naphthyridin-1-yl)-1,1-dimethylethyl]methanesulfonamide, reference compound] | 0.37 µM | 0.04 µM |  |  | 9234 pg/mL | 2465 pg/mL
 | COCCc1nc2c(N)nc3cccnc3c2n1CC(C)(C)O [Analog 2, 1-[4-amino-2-(2-methoxyethyl)-1H-imidazo[4,5-c][1,5]naphthyridin-1-yl]-2-methylpropan-2-ol, reference compound] | 0.37 µM | 0.04 µM | 0.37 µM | 0.04 µM |  | 

From patent publication US8343993B2, “Hydroxyalkyl substituted imidazonaphthyridines” (3M Innovative Properties Company, priority 2005, dated 2013)
